Experiments:
[1] = tested on: C3Heb/FeJ strain of Kv1.1 knockouts; test: Status epilepticus induced with kainate, three-stage injection protocol; assay type: in vivo, mouse
Method: A three-stage injection protocol is employed to induce status epilepticus with kainate. Mice are given 10 mg/kg (in pH 7.4 saline) of kainate subcutaneously, after which they begin electroclinical seizure activity. An additional 5 mg/kg is administered 30 minutes after behavioral seizure initiation, followed by another 5 mg/kg dose sc after another 30 minutes. This protocol has previously provided a high survivability rate (greater than 90%) in the C3Heb/FeJ strain of Kv1.1 knockouts, and to moreover sustain the status for at least a 2-hour duration. Behavioral seizure scoring is conducted using a modified Racine scale, and cumulative seizure scores are generated for each animal (a seizure score is given every minute, with the highest numerical value based on the Racine scale; then the cumulative score is generated by adding all the individual scores for each minute of seizure activity).

[2] = tested on: Kv1.1 mutants; settings: 30 mg/kg IP; cited from earlier work
[3] = tested on: Kv1.1 mutant mice; test: Neural damage in the hippocampus assessed with FluoroJade B staining after systemic treatment; assay type: in vivo, mouse; settings: blood flow suppressor 7-nitroindazole 50 mg/kg IP; blood flow enhancer acetazolamide 30 mg/kg IP
Method: Ictal hyperemia and/or ischemia leads to neuronal damage. The contribution of ictal blood flow to neural damage (assessed with Fluorojade B staining) is determined by measuring the neural damage in the hippocampus, as a function of systemic treatment with a blood flow suppressor (e.g., 7-nitroindazole; 50 mg/kg IP) and a blood flow enhancer (e.g., acetazolamide; 30 mg/kg IP).
Ictal hyperemia and/or ischemia leads to neuronal damage. The contribution of ictal blood flow to neural damage is assessed with FluoroJade B staining to measure the neural damage in the hippocampus, as a function of systemic treatment with a blood flow suppressor (7-nitroindazole; 50 mg/kg IP) and enhancer (acetazolamide; 30 mg/kg IP).
Ten minutes before imaging blood flow, drugs will be administered by IP injection at a volume of 0.01 ml per g of body weight. […]
The staining solution is made with 0.01% stock solution of FluoroJade B (Histo-Chem. Inc., Jefferson Ark.) in distilled water (final dye concentration of 0.0004%). […] The tissue representing the hippocampus is then examined using epifluorescence microscopy with blue (450-490 nm) excitation light: the position of the imaging focus is localized by the red Di-I track from the cannula, and neuronal damage is assessed by FluoroJade B staining colored green. […]

[4] = tested on: seizures; settings: in vivo; cited from earlier work
[5] = kainate 10 mg/kg sc, then 5 mg/kg and 5 mg/kg at 30 minute intervals

Row | Compound | duration of sustained status epilepticus [1, 5] [h] | survivability rate [1, 5] | neural damage after kainate-induced status epilepticus (FIGS. 6A-6B) ([1]; mouse, FluoroJade B) | effect on blood flow [2] | neural damage in the hippocampus (FluoroJade B staining) [3] | effect on seizures [4]
1 | C=C(C)[C@H]1CN[C@H](C(=O)O)[C@H]1CC(=O)O [kainate] | ≥ 2 | greater than 90% | statistically significant effects of neural damage | – | – | –
2 | CC(=O)Nc1nnc(S(N)(=O)=O)s1 [acetazolamide] | – | – | – | increased blood flow | increased neural damage | reduce seizures
3 | O=[N+]([O-])c1cccc2cn[nH]c12 [7-nitroindazole] | – | – | – | – | less neural damage | –
